The subject of data set [1] is MAO-A. Particulars: cited from earlier work.
Data set [2] has as its system zebrafish larvae. As to the kind of experiment: Zebrafish models of stress and anxiety, overall verdict (Light/Dark Stress Response and thigmotaxis). Particulars: for Anti-Anxiety Potential?: API used singly. Format: in vivo. As to the method: (§1) The validation process for the phytochemicals derived from Piper methysticum, other Piper plant family members, and non-Piper medicinal plants and fungi includes testing the selected phytochemical drug candidates as singles, doubles, and triples in two complementary zebrafish models of stress and anxiety. These two complementary assays are the Light/Dark Stress Response test that is illustrated in FIG. 5 (after the 90 min study of the effect of the compounds and mixtures on Baseline Activity) and the Thigmotaxis assay, as illustrated in FIG. 61A and FIG. 61B, which is also known as the wall flower effect, like the social anxiety of humans. Zebrafish larvae show a clear and distinct pattern of swimming in response to rapidly alternating light and dark conditions in the Light/Dark Response testing, which trigger a flight or fight response and darting behavior indicative of great stress and anxiety. The Light/Dark testing uses a control group to automatically track, using an automatic tracking device, the larval behavior in response to dark to light conditions. The thigmotaxis assay also uses automatic tracking and appropriate controls. In multiple embodiments additional Zebrafish larvae are given various concentrations of the selected phytochemicals from Table 1 for tracking Light/Dark Responses or Thigmotactic behavioral changes in the treated zebrafish larvae. Table 2A and Table 2B summarize the results from both assays when the individual phytochemicals are exposed to the: Baseline Activity (90 minutes in the light), Light/Dark Stress Response (5 min alternating pulses of dark and light for 30 min.), and Thigmotaxis Activity (% of time in the light center of the chamber (anxiety inducing) versus % of time near the dark (soothing) wall).
Additionally, testing is done with mixtures of these same selected phytochemicals from P. methysticum and other plants selected by our in silico analyses. The testing results are analyzed using artificial intelligence systems to rank effectiveness in reducing the Light/Dark response and thigmotactic behavior for the
The A1 enabled drug discovery platform database search data was evaluated to select the best drug candidates from: A Piper methysticum, B. within the Piper plant family (>200 Piper spp.), or C. traditional medicines to begin testing […] (API) singles, doubles, and triples in two complementary zebrafish models of anxiety light/dark startle response testing and thigmotaxis assays.
(§2) The present invention includes a process to discover new pharmaceutical medicines for the treatment of stress, anxiety and anxiety-related disorders in a human. The preclinical testing included the effects of these 14 individual phytochemicals and 300 ratio-controlled mixtures of these phytochemicals in assays measuring the behavioral stress response patterns of zebrafish larvae. Larval behavior is assessed with at least one functional assay of stress or anxiety following acute exposure to each phytochemical sample formulated. Stereotypical basal activity patterns of zebrafish will be assessed to determine the potential side effects of the phytochemical samples in a concentration dependent manner for each compound on two zebrafish models of stress and anxiety: 1) the Light/Dark Stress Response (5 min alternating pulses of light and dark) in small to med well plates (96-48 well plates), and 2) Thigmotaxis assays in large well plates with 50% of the swimming surface colored dark around the margins of the well in large (24-12 well plates) will be assessed for their efficacy in testing the phytochemicals.
The discovery methods of the present invention include testing the effects of up to 20 phytochemicals and 40 mixtures of the phytochemicals on behavioral stress response patterns of zebrafish larvae. Larval behavior was assessed with an automated video tracking system following acute exposure to each phytochemical sample. […]

Data set [3] concerns zebrafish larvae. Put plainly: Thigmotaxis assay. Format: in vivo. Set-up: key: +: statistically significant increase; −−: statistically significant decrease. As to the method:
as §1, §2
(§3) The discovery methods of the present invention include testing the effects of up to 20 phytochemicals and 40 mixtures of the phytochemicals on behavioral stress response patterns of zebrafish larvae. Larval behavior was assessed with an automated video tracking system following acute exposure to each phytochemical sample. Stereotypical basal activity patterns of larvae were assessed to determine the concentration dependent effect of each compound. A zebrafish model of thigmotaxis in large well plates (24-12 well plates) was assessed for their efficacy in testing the phytochemicals. In the discovery method, fertilized eggs were kept on a re-circulating system in baskets until use at 120 hpf (5 days). At 120 hpf, larvae were loaded into 48 well plates in buffered fish media and acclimated to the plate in a heated light incubator for 2 hours. Larvae were acutely exposed with drug or controls at a 10× concentration and the plate was quickly transferred to a behavioral tracking system. Acute behavioral run was 90 minutes (baseline activity) in the light followed by alternating 5 minute bins (total 2 hours). […]

In data set [4] the test system is MAO-B. The conditions noted are these: cited from earlier work.
Data set [5] deals with zebrafish larvae. As to the kind of experiment: Baseline activity / baseline exposure (90 min continuous light), zebrafish larvae. Format: in vivo. Set-up: key to Baseline Exposure: +: statistically significant increase; −−: statistically significant decrease. As to the method: as §1, §2, §3
Data set [6] relates to zebrafish larvae. As to the kind of experiment: Light/Dark Stress Response (5 min alternating pulses of dark and light for 30 min). Format: in vivo. Set-up: key to Light/Dark Stress Response: +: statistically significant increase; −−: statistically significant decrease. As to the method: as §1, §2, §3
A short description of data set [7]: Pharmacokinetics of piperine acting alone. Format: in vivo.

Entries after “also recorded” stand apart in the source; their conditions may differ.

On to `COC1=CC(=O)O[C@@H](CCc2ccc3c(c2)OCO3)C1` [(+)-dihydro methysticin], for which the “Approx. Dose (cell or animal experiments), MAO-A” value in data set [1] is on record as “MAO-A 23.2 μM,”. For the same compound, the “Anti-Anxiety Potential?” value in data set [2] is given as “Yes”. For the same compound, the “Therapeutic Potential” value in data set [2] (vehicle 0.5% MeOH) is on record as “Yes”. Moreover, the “Thigmotaxis Model” value in data set [3] (High) and in data set [3] (Med) was “−−” each time. Moreover, the “Approx. Dose (cell or animal experiments), MAO-B” value in data set [4] was “MAO-B 0.855 μM”. For the same compound, the “Baseline Exposure” value in data set [5] (High) is reported as “−−”; in data set [5] (Low), “+”; in data set [5] (Med) it was “−−”. Besides, the “baseline Activity (90 min light)” value is “baseline activity is close to controls; also recorded: (slight increase initially)” in data set [5] (vehicle 0.5% MeOH, listed as Dihydromysticin) and “baseline activity levels reduced; also recorded: (evidence of sedation)” in data set [5] (vehicle 1% MeOH, listed as Dihydromysticin). For the same compound, the “Light/Dark Stress Response (5 min light/dark pulses)” value is recorded as “stress response is reduced” in data set [6] (vehicle 0.5% MeOH) and “stress response is reduced, but evidence” in data set [6] (vehicle 1% MeOH).
Take `O=C(/C=C/C=C/c1ccc2c(c1)OCO2)N1CCCCC1` [piperine]: the pharmacokinetics result in data set [7] is given as “positive results”. Besides, in data set [2], the “Anti-Anxiety Potential?” value was “Yes”. Moreover, the “Therapeutic Potential” value in data set [2] (vehicle 1% MeOH) was “YES-top pick”. Also, in data set [3] (High), the “Thigmotaxis Model” value was “−−”. Moreover, the “Baseline Exposure” value is given as “+” in data set [5] (High) and “−−” in data set [5] (Low). Further, the “effect on the baseline activity” value in data set [5] (acting alone) is given as “virtually no effect on the baseline activity”. In addition, the “Light/Dark Stress Response” value in data set [6] (High) and in data set [6] (Med) was “−−” each time. For the same compound, the “Light/Dark Stress Response (5 min light/dark pulses)” value in data set [6] (vehicle 1% MeOH) is on record as “stress response is reduced”.
In the case of `COc1ccc(/C=C/c2cc(OC)cc(=O)o2)cc1` [yangonin], the “Approx. Dose (cell or animal experiments), MAO-A” value in data set [1] was “MAO-A1.29 μM,”. The “Anti-Anxiety Potential?” value in data set [2] is reported as “Yes”. Also, the “Therapeutic Potential” value in data set [2] (vehicle 0.5% MeOH) and in data set [2] (vehicle 1% MeOH) was “Yes” throughout. Also, the “Thigmotaxis Model” value in data set [3] (High) and in data set [3] (Med) was “−−” throughout. In data set [4], the “Approx. Dose (cell or animal experiments), MAO-B” value is reported as “MAO-B 0.085 μM”. The “Baseline Exposure” value in data set [5] (High), in data set [5] (Low) and in data set [5] (Med) was “+” in each case. Besides, the “baseline Activity (90 min light)” value in data set [5] (vehicle 0.5% MeOH) and in data set [5] (vehicle 1% MeOH) was “baseline activity is close to controls; also recorded: (slight increase initially)” in each case. Moreover, the “Light/Dark Stress Response” value in data set [6] (High) is reported as “−−”. Also, the “Light/Dark Stress Response (5 min light/dark pulses)” value in data set [6] (vehicle 0.5% MeOH) and in data set [6] (vehicle 1% MeOH) was “stress response is reduced” throughout.

These data come from patent publication US20260335278A1, “PHYTOCHEMICAL FORMULATIONS FOR TREATING STRESS AND ANXIETY” (GBS GLOBAL BIOPHARMA, INC., priority 2022, published 2026).
